Laboratory results reported in patent publication US9920010B2, “CXCR7 receptor modulators” (IDORSIA PHARMACEUTICALS LTD, priority 2013, dated 2018).

The compounds below were run against T1, CXCR7 (Homo sapiens, UniProt P25106) (assay: PathHunter CHO-K1 CXCR7 b-arrestin recruitment assay (CXCR7 agonistic activity)). Details: PathHunter CHO-K1 CXCR7 b-arrestin cell line.
T1 construct: host or cells: CHO-K1 (PathHunter CHO-K1 CXCR7 b-arrestin cell line, stably transfected)
Assay type: cell-based
Summary of the method: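 Stable CHO-K1 line with C-terminally ProLink-tagged CXCR7 and β-arrestin 2–EA fusion; β-arrestin recruitment restores β-gal activity, read by chemiluminescence after 1 h RT detection. Cells seeded 24 h, starved in OPTIMEM 3–4 h, exposed to compounds 90 min at 37 °C in HBSS/HEPES/BSA. Geometric-mean EC50 from repeated measurements.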

T1 sequence (P25106 whole entry): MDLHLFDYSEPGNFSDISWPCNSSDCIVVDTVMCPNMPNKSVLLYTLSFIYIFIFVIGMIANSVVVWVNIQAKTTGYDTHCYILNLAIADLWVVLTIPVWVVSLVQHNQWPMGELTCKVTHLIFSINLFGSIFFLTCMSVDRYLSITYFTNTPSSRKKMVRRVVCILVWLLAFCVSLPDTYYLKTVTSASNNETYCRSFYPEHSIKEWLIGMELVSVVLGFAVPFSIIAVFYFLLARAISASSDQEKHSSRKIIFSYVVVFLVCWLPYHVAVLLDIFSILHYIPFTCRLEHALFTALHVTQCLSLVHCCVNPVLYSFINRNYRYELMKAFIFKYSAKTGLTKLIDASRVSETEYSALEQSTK
T1 sequence (P32121 whole entry partner): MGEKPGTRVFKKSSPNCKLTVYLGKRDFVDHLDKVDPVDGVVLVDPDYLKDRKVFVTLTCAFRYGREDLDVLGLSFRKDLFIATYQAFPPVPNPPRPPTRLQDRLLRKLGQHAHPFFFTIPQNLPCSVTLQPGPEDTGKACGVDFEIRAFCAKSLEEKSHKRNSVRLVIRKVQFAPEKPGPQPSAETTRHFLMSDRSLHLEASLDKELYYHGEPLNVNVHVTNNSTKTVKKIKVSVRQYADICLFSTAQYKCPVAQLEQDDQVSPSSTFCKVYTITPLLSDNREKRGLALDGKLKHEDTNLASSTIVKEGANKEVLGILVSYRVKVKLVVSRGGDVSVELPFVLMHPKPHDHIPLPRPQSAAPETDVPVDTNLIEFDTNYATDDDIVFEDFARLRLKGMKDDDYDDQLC

EC50	Structure (SMILES)
28 nM	CCC(=O)N1CCc2c(cccc2NCC(=O)N(CCC2CCCN2C)Cc2ccccc2)C1 (racemic) [Example 32, rac-N-Benzyl-N-[2-(1-methyl-pyrrolidin-2-yl)-ethyl]-2-(2-propionyl-1,2,3,4-tetrahydro-isoquinolin-5-ylamino)-acetamide]
21 nM	CN(C)CCN(Cc1ccccc1C(F)(F)F)C(=O)CNc1cccc2c1CCN(C(=O)C(C)(F)F)C2 [Example 362, 2-[2-(2,2-Difluoro-propionyl)-1,2,3,4-tetrahydro-isoquinolin-5-ylamino]-N-(2-dimethylamino-ethyl)-N-(2-trifluoromethyl-benzyl)-acetamide]
8 nM	CN(C)CCN(Cc1ncccc1Br)C(=O)CNc1cccc2c1CN(C1CCC1)CC2 [compound 456, N-(3-Bromo-pyridin-2-ylmethyl)-2-(2-cyclobutyl-1,2,3,4-tetrahydro-isoquinolin-8-ylamino)-N-(2-dimethylamino-ethyl)-acetamide]
10 nM	CN(C)CCN(Cc1ncccc1F)C(=O)CNc1cccc2c1CCN(CC1CC1)C2 [Example 271, 2-(2-Cyclopropylmethyl-1,2,3,4-tetrahydro-isoquinolin-5-ylamino)-N-(2-dimethylamino-ethyl)-N-(3-fluoro-pyridin-2-ylmethyl)-acetamide]
36 nM	CCCC(=O)N1CCc2c(cccc2NCC(=O)N(CCN(C)C)Cc2ccccc2)C1 [compound 114, N-Benzyl-2-(2-butyryl-1,2,3,4-tetrahydro-isoquinolin-5-ylamino)-N-(2-dimethylamino-ethyl)-acetamide]
8 nM	O=C(CNc1cccc2c1CCN(CC1CC1)C2)N(Cc1ccccc1C(F)(F)F)CC1(O)CCCC1 [Example 243, 2-(2-Cyclopropylmethyl-1,2,3,4-tetrahydro-isoquinolin-5-ylamino)-N-(1-hydroxy-cyclopentylmethyl)-N-(2-trifluoromethyl-benzyl)-acetamide]
2 nM	CN(C)CCN(Cc1ccccc1C(F)(F)F)C(=O)CCc1cccc2c1CCN(CC1CC1)C2 [compound 158, 3-(2-Cyclopropylmethyl-1,2,3,4-tetrahydro-isoquinolin-5-yl)-N-(2-dimethylamino-ethyl)-N-(2-trifluoromethyl-benzyl)-propionamide]
184 nM	COCCN1CCc2c(/C=C/C(=O)N(CCN3CCC(F)(F)CC3)Cc3ncccc3Cl)cccc2C1 [Example 326, (E)-N-(3-Chloro-pyridin-2-ylmethyl)-N-[2-(4,4-difluoro-piperidin-1-yl)-ethyl]-3-[2-(2-methoxy-ethyl)-1,2,3,4-tetrahydro-isoquinolin-5-yl]-acrylamide]
26 nM	CN(C)CCN(Cc1ccccc1C(F)(F)F)C(=O)NCc1cccc2c1CN(CC1CC1)CC2 [Example 569, 3-(2-Cyclopropylmethyl-1,2,3,4-tetrahydro-isoquinolin-8-ylmethyl)-1-(2-dimethylamino-ethyl)-1-(2-trifluoromethyl-benzyl)-urea]
6 nM	CN(C)CCN(Cc1ccccc1C(F)(F)F)C(=O)CNc1cccc2c1CCN(C(=O)[C@H]1C[C@H]1F)C2 (single isomer, unassigned) [Example 363a, N-(2-Dimethylamino-ethyl)-2-[2-((1R*,2R*)-2-fluoro-cyclopropanecarbonyl)-1,2,3,4-tetrahydro-isoquinolin-5-ylamino]-N-(2-trifluoromethyl-benzyl)-acetamide]
29 nM	C#CCOC(=O)N1CCc2c(cccc2NCC(=O)N(CCNC)Cc2ncccc2C(F)(F)F)C1 [compound 421, 5-({[(2-Methylamino-ethyl)-(3-trifluoromethyl-pyridin-2-ylmethyl)-carbamoyl]-methyl}-amino)-3,4-dihydro-1H-isoquinoline-2-carboxylic acid prop-2-ynyl ester]
78 nM	CCN1Cc2cccc(NCC(=O)N(CCN(C)C)Cc3ncccc3C(F)(F)F)c2CC1=O [Example 310, N-(2-Dimethylamino-ethyl)-2-(2-ethyl-3-oxo-1,2,3,4-tetrahydro-isoquinolin-5-ylamino)-N-(3-trifluoromethyl-pyridin-2-ylmethyl)-acetamide]
4 nM	CN(C)CCN(Cc1ccccc1C(F)(F)F)C(=O)CNc1cccc2c1CCN(C1CCC1)C2 [Example 352, 2-(2-Cyclobutyl-1,2,3,4-tetrahydro-isoquinolin-5-ylamino)-N-(2-dimethylamino-ethyl)-N-(2-trifluoromethyl-benzyl)-acetamide]
10 nM	CN(C)CCN(Cc1ncccc1Cl)C(=O)CNc1cccc2c1CN(C1CCC1)CC2 [compound 455, N-(3-Chloro-pyridin-2-ylmethyl)-2-(2-cyclobutyl-1,2,3,4-tetrahydro-isoquinolin-8-ylamino)-N-(2-dimethylamino-ethyl)-acetamide]
255 nM	CN(C)CCN(Cc1ccccc1C(F)(F)F)C(=O)CNc1cccc2c1CN(CC1CC1)CC2(C)C [compound 199]
31 nM	CNCCN(Cc1ccccc1C(F)(F)F)C(=O)CNc1cccc2c1CCN(C(=O)OCCF)C2 [compound 400, 5-({[(2-Methylamino-ethyl)-(2-trifluoromethyl-benzyl)-carbamoyl]-methyl}-amino)-3,4-dihydro-1H-isoquinoline-2-carboxylic acid 2-fluoro-ethyl ester]
395 nM	CN(C)CCN(Cc1ccccc1)C(=O)CNc1cccc2c1CCN(C(=O)OCC(C)(C)C)C2 [compound 127]
34 nM	CN(C)CCN(Cc1ccccc1C(F)(F)F)C(=O)CNc1cccc2c1CCN(C1CCOC1)C2 (racemic) [Example 351, rac-N-(2-Dimethylamino-ethyl)-2-[2-(tetrahydro-furan-3-yl)-1,2,3,4-tetrahydro-isoquinolin-5-ylamino]-N-(2-trifluoromethyl-benzyl)-acetamide]
237 nM	O=C(CNc1cccc2c1CCN(C(=O)[C@@H]1C[C@@H]1F)C2)N(CCN1CCC(F)(F)CC1)Cc1ncccc1Cl (racemic) [Example 294, rac-N-(3-Chloro-pyridin-2-ylmethyl)-N-[2-(4,4-difluoro-piperidin-1-yl)-ethyl]-2-[2-((1S*,2S*)-2-fluoro-cyclopropanecarbonyl)-1,2,3,4-tetrahydro-isoquinolin-5-ylamino]-acetamide]

Continued, compound first:

Structure (SMILES)	EC50
CCN1CCc2cccc(NCC(=O)N(CCN(C)C)Cc3ccccc3)c2C1 [Example 185, N-Benzyl-N-(2-dimethylamino-ethyl)-2-(2-ethyl-1,2,3,4-tetrahydro-isoquinolin-8-ylamino)-acetamide]	79 nM
O=C(CNc1cccc2c1CCN(CC1CC1)C2)N(CCN1CCC(F)(F)CC1)Cc1ncccc1Cl [Example 249, N-(3-Chloro-pyridin-2-ylmethyl)-2-(2-cyclopropylmethyl-1,2,3,4-tetrahydro-isoquinolin-5-ylamino)-N-[2-(4,4-difluoro-piperidin-1-yl)-ethyl]-acetamide]	12 nM
CN1CCCC1CCN(C/C=C/c1ccccc1)C(=O)CNc1cccc2c1CCN(CC1CC1)C2 (racemic) [Example 53, rac-2-(2-Cyclopropylmethyl-1,2,3,4-tetrahydro-isoquinolin-5-ylamino)-N-[2-(1-methyl-pyrrolidin-2-yl)-ethyl]-N-((E)-3-phenyl-allyl)-acetamide]	23 nM
C#CCN1CCc2c(cccc2NCC(=O)N(CCN(C)C)Cc2ccccc2C(F)(F)F)C1 [Example 308, N-(2-Dimethylamino-ethyl)-2-(2-prop-2-ynyl-1,2,3,4-tetrahydro-isoquinolin-5-ylamino)-N-(2-trifluoromethyl-benzyl)-acetamide]	28 nM
CCC(=O)N1CCc2c(CCC(=O)N(CCN(C)C)Cc3ccccc3)cccc2C1 [Example 162, N-Benzyl-N-(2-dimethylamino-ethyl)-3-(2-propionyl-1,2,3,4-tetrahydro-isoquinolin-5-yl)-propionamide]	46 nM
O=C(CNc1cccc2c1CCN(CC1CC1)C2)N(CCOCc1ccccc1)Cc1ccccc1C(F)(F)F [Example 82, N-(2-Benzyloxy-ethyl)-2-(2-cyclopropylmethyl-1,2,3,4-tetrahydro-isoquinolin-5-ylamino)-N-(2-trifluoromethyl-benzyl)-acetamide]	158 nM
CN1CCC(N(Cc2ccccc2C(F)(F)F)C(=O)CNc2cccc3c2CN(CC2CC2)CC3(C)C)CC1 [compound 200]	235 nM
C/C(=C\c1cccc2c1CCN(CC1CC1)C2)C(=O)N(CCN(C)C)Cc1ccccc1C(F)(F)F [compound 154, (E)-3-(2-Cyclopropylmethyl-1,2,3,4-tetrahydro-isoquinolin-5-yl)-N-(2-dimethylamino-ethyl)-2-methyl-N-(2-trifluoromethyl-benzyl)-acrylamide]	29 nM
CNCCN(Cc1ccccc1C(F)(F)F)C(=O)CNc1cccc2c1CCN(C(=O)C1CCC1)C2 [compound 389, 2-(2-Cyclobutanecarbonyl-1,2,3,4-tetrahydro-isoquinolin-5-ylamino)-N-(2-methylamino-ethyl)-N-(2-trifluoromethyl-benzyl)-acetamide]	20 nM
CCC(=O)N1CCc2c(cccc2NCC(=O)N(CCC(C)C)Cc2ccccc2)C1 [Example 12, N-Benzyl-N-(3-methyl-butyl)-2-(2-propionyl-1,2,3,4-tetrahydro-isoquinolin-5-ylamino)-acetamide]	194 nM
CN(C)CCN(Cc1ccc(OC(F)(F)F)cc1)C(=O)CNc1cccc2c1CCN(CC1CC1)C2 [Example 228, 2-(2-Cyclopropylmethyl-1,2,3,4-tetrahydro-isoquinolin-5-ylamino)-N-(2-dimethylamino-ethyl)-N-(4-trifluoromethoxy-benzyl)-acetamide]	117 nM
CNCCN(Cc1ncccc1C(F)(F)F)C(=O)CNc1cccc2c1CCN(C(=O)C1CCOC1)C2 (racemic) [compound 417]	15 nM
C#CCN(C)CCN(Cc1ccccc1C(F)(F)F)C(=O)CNc1cccc2c1CCN(CC1CC1)C2 [Example 246, 2-(2-Cyclopropylmethyl-1,2,3,4-tetrahydro-isoquinolin-5-ylamino)-N-[2-(methyl-prop-2-ynyl-amino)-ethyl]-N-(2-trifluoromethyl-benzyl)-acetamide]	14 nM
